Marks after values point to notes of the source that are not given here.
Legend:
[1] = test system: human colon carcinoma cell line, SW-480; experiment: Growth inhibition, Sulforhodamine B (SRB) protein binding assay; type: cell-based; details: SW-480 cell line, six days continuous exposure
Procedure: These compounds were assayed for their growth inhibitory activity on the human colon carcinoma cell line, SW-480 obtained from ATCC (Rockville, Md.), to ascertain the degree of growth inhibition. Growth inhibition of this cell line is indicative of a benefit on precancerous lesions and neoplasms. The cell line and growth assay employed for these experiments are well characterized, and are used to evaluate the anti-neoplastic properties of NSAIDs. The assay is used by the United States National Cancer Institute in its screening program for new anti-cancer drugs.
Drug stock solutions were made in 100% DMSO then diluted with RPMI media for cell culture testing. All drug solutions were prepared fresh on the day of testing. The cultured cells were obtained at passage #99 and grown in RPMI media supplemented with 5% fetal calf serum, and 2 mM glutamine, 100 U/ml penicillin, 100 U/ml streptomycin, and 0.25 μg/ml amphotericin. The cultures were maintained in a humidified atmosphere of 95% air and 5% CO2 at 37° C. The cultures were passaged at preconfluent densities using a solution of 0.05% trypsin and 0.53 mM EDTA. Cells were plated at 1000 cells/well for 96 well flat-bottom microtiter plates.
Tumor cell growth inhibition was assessed using the Sulforhodamine B (SRB) protein binding assay. In this assay, tumor cells were plated in 96-well plates and treated with drug-containing media for six days (continuous exposure). For each plate, 6 wells were designated as no treatment controls, six wells as vehicle (0.1% DMSO) controls, and the remaining wells for drug dilutions with three wells per drug concentration. At the end of the exposure period, the cells were fixed and stained with sulforhodamine B, a protein binding dye. The dye was then solubilized, and the optical density of the resulting solution was determined on a 96-well plate reader. The mean dye intensity of the treated wells was then divided by the mean dye intensity in the control wells (6 wells of each) to determine the effect of the drug on the cells. Dye intensity is proportional to the number of cells or amount of protein per well. The resultant “percent inhibition” value then represents the degree of growth inhibition caused by the drug.
For each experiment, an IC50 value was determined and used for comparative purposes. This value is equivalent to the concentration of drug needed to inhibit tumor cell growth by 50%. IC50 values were obtained graphically by connecting the mean values for each drug concentration tested. Each experiment included at least three wells per drug concentration. Concentration was plotted on a log scale on the X-axis.

[2] = test system: SW-480 colon adenocarcinoma cells; experiment: Apoptosis by DNA fragmentation (Cell Death Detection ELISA plus); type: cell-based, human; details: SW-480 cells, 48 hrs; for EC50: by software or estimated from effective concentration range; for DNA Fragmentation FS (100 μM): fold stimulation FS=ODmax/ODveh
Procedure: Apoptosis was also measured based on the amount of fragmented DNA contained in cell lysates. Briefly, SW-480 colon adenocarcinoma cells were plated in 96-well microtitre plates (“MTP”) at a density of 10K cells/well in 180 μl and incubated for 24 hrs. Cells were then treated with 20 μl aliquots of appropriately diluted compound, and allowed to incubate for an additional 48 hrs.
After the incubation, samples were prepared according to the following steps. The MTP was centrifuged (15 min., 1000 rpm) and the supernatant was carefully removed by fast inversion of the MTP. The cell pellents in each well were then resuspended in ^200 μl lysis buffer and incubated for 45 min. at room temperature to lyse the cells. The lysates were then centrifuged (15 min., 1000 rpm) and 20 μl aliquots of the supernatant (=cytoplasmic fraction) were transferred into the streptavidin coated MTP for analysis. Care was taken not to shake the lysed pellets in the MTP (=cell nucleii containing high molecular weight, unfragmented DNA). Samples were analyzed immediately, because storage at 4 C or −20 C reduces the ELISA-signals.
Samples were then processed according to a DNA fragmentation assay protocol, and dose-response curves were generated based on optical density readings. Quantification of DNA was done by a commercially available photometric enzyme-immunoassay manufactured by Mannheim-Boehringer under the name “Cell Death Detection ELISA^plus”. The assay is based on a quantitative sandwich-enzyme-immunoassay-principle using mouse monoclonal antibodies directed against DNA and histones, respectively. This allows the specific determination of mono and oligonucleosomes in the cytoplasmatic fraction of cell lysates. In brief, the assay procedure is as follows. The sample (cell-lysate, serum, culture-supernatant etc.) is placed into a streptavidin-coated MTP. Subsequently, a mixture of anti-histone-biotin and anti-DNA-POD are added and incubated for 2 hours. During the incubation period, the anti-histone antibody binds to the histone-component of the nucleosomes and simultaneously fixes the immunocomplex to the streptavidin-coated MTP via its biotinylation. Additionally, the anti-DNA-POD antibody reacts with the DNA component of the nucleosomes. After removal of unbound antibodies by a washing step, the amount of nucleosomes is quantified by the POD retained in the immunocomplex. POD is determined photometrically with ABTS® (2,2′-Azino-di[3-ethylbenzthiazolin-sulfonat])* as substrate.
Fold stimulation (FS=ODmax/ODveh), an indicator of apoptotic response, was determined for each compound tested. EC50 values were determined either specifically by data analysis software, or by estimates based on the effective concentration range of each compound (ECR=min. effective dose-min. dose to peak effect). These FS and EC50 values for the tested compounds are listed above in Table 6.

COX I = molecular target: T1, COX I (Ovis aries, UniProt P05979); experiment: Cyclooxygenase (COX) inhibition, purified COX; type: biochemical; details: purified COX from ram seminal vesicles; for COX I % Inhibition (100 μM): 100 μM test compound, arachidonic acid 100 μM
T1 construct: The COX was purified form ram seminal vesicles; from tissue; host or cells: ram seminal vesicles
T1 sequence (P05979 25-600): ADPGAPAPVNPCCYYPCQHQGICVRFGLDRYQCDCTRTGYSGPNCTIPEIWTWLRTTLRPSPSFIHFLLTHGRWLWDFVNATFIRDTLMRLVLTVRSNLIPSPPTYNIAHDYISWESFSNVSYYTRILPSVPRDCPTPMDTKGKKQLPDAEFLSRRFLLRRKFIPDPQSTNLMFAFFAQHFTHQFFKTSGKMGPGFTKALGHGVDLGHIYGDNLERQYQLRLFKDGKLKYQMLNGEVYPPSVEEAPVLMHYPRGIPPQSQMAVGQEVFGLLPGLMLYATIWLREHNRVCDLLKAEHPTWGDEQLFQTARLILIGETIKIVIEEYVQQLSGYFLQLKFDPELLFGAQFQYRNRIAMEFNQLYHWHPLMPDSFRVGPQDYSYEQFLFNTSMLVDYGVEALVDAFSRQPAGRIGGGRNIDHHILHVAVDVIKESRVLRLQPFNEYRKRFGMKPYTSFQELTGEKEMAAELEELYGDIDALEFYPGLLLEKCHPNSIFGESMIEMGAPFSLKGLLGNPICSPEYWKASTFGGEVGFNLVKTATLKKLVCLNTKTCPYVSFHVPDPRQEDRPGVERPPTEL
Procedure: Compounds of this invention, as well as a positive control, sulindac sulfide were to determine whether they inhibited the production of cyclooxygenase (see Table 5 below).
COX catalyzes the formation of prostaglandins and thromboxane by the oxidative metabolism of arachidonic acid. The compounds of this invention were evaluated for inhibitory effects on purified COX. The COX was purified form ram seminal vesicles, as described by Boopathy, R. and Balasubramanian, J. 239:371-377, 1988. COX activity was assayed as described by Evans, A. T., et al., “Actions of cannabis constituents on enzymes of arachidonate metabolism anti-flammatory potential,” Biochem. Pharmacol., 36:2035-2037, 1987. Briefly, purified COX was incubated with arachidonic acid (100 μM) for 2.0 min at 37° C. in the presence or absence of test compounds. The assay was terminated buy the addition of TCA, and COX activity was determined by absorbance at 530 nm.

[3] = test system: HT-29 human colon carcinoma cells; experiment: Apoptosis by morphology (acridine orange/ethidium bromide, condensed chromatin); type: cell-based; details: HT-29 cells
Procedure: Apoptosis was measured using an assay of cell death based on morphological characteristics of apoptotic cells (i.e., condensed chromatin). Drug preparation and cell culture conditions were the same as for the SRB assay described above, except that HT-29 human colon carcinoma cells were employed/Confluent cultures were established in 12.5 cm^2 flasks by plating 0.5×10^6 cells/flask. The cultures were assayed for apoptosis by fluorescent microscopy following labeling with acridine orange and ethidium bromide. Floating and attached cells were collected by trypsinization and washed three times in PBS. One ml aliquots were centrifuged (3 g). The pellet was resuspended in 25 μl media and 1 μl of a dye mixture containing 100 μg/ml acridine orange and 100 μg/ml ethidium bromide prepared in PBS and mixed gently. Ten μl of mixture was placed on a microscope slide and covered with a 22 mm^2 coverslip and examined under 40×dry objectives using epillumination and filter combination.
An observer blinded to the identity of the treatments scored at least 100 cells per sample. Apoptotic cells were identified by nuclear condensation of chromatin stained by the acridine orange or ethidium bromide.

SMILES	IC50 [1]	COX I % Inhibition (100 μM) (COX I)	COX I % Inhibition (values marked *) (COX I; values marked *: 1000 μM test compound)	EC50 [2]	DNA Fragmentation FS (100 μM) [2]	Morphology % Apoptotic Cells (1 μM) [3]
COc1cc(/C=C2/C(C)=C(CC(=O)NCc3ccccc3)c3cc(F)ccc32)cc(OC)c1OC [Example 1, (Z)-5-fluoro-2-methyl-1-(3,4,5-trimethoxybenzylidene)-3-(N-Benzyl)-indenylacetamide]	40 nM	<25%		50 nM	4.6	73%
COc1cc(/C=C2/C(C)=C(CC(=O)NCc3cc(F)ccc3F)c3cc(F)ccc32)cc(OC)c1OC [Example 8, (Z)-5-fluoro-2-methyl-1-(3,4,5-trimethoxybenzylidene)-3-(N-2,5-difluorobenzyl)-indenylacetamide]	120 nM	<25%		210 nM	<2	48%
COc1ccccc1CNC(=O)CC1=C(C)/C(=C/c2cc(OC)c(OC)c(OC)c2)c2ccc(F)cc21 [Example 15, (Z)-5-fluoro-2-methyl-1-(3,4,5-trimethoxybenzylidene)-3-(N-2-methoxybenzyl)-indenylacetamide]	390 nM	<25%		300 nM	2.1	72%
COc1ccc(CNC(=O)CC2=C(C)/C(=C/c3cc(OC)c(OC)c(OC)c3)c3ccc(F)cc32)c(OC)c1 [Example 19, (Z)-5-fluoro-2-methyl-1-(3,4,5-trimethoxybenzylidene)-3-(N-2,4-dimethoxybenzyl)-indenylacetamide]	4500 nM	33.3%		7000 nM	2	<20%
COc1cc(/C=C2/C(C)=C(CC(=O)Nc3ccccc3)c3cc(F)ccc32)cc(OC)c1OC [Example 22, (Z)-5-fluoro-2-methyl-1-(3,4,5-trimethoxybenzylidene)-3-(N-phenyl)-indenylacetamide]	4500 nM	<25%		5000 nM	2.3	37%
COc1cc(/C=C2/C(C)=C(CC(=O)Nc3ccc(Br)cc3)c3cc(F)ccc32)cc(OC)c1OC [Example 23, (Z)-5-fluoro-2-methyl-1-(3,4,5-trimethoxybenzylidene)-3-(N-4-bromophenyl)-indenylacetamide]	8000 nM	<25%				

Continued, in another order:

IC50 [1]	COX I % Inhibition (100 μM) (COX I)	COX I % Inhibition (values marked *) (COX I; values marked *: 1000 μM test compound)	SMILES	EC50 [2]	DNA Fragmentation FS (100 μM) [2]	Morphology % Apoptotic Cells (1 μM) [3]
360 nM	<25%		COc1cc(/C=C2/C(C)=C(CC(=O)NCc3ccccc3Cl)c3cc(F)ccc32)cc(OC)c1OC [Example 4, (Z)-5-fluoro-2-methyl-1-(3,4,5-trimethoxybenzylidene)-3-(N-2-chlorobenzyl)-indenylacetamide]	250 nM	2.4	68%
220 nM	<25%		C#CCNC(=O)CC1=C(C)/C(=C/c2cc(OC)c(OC)c(OC)c2)c2ccc(F)cc21 [Example 27, (Z)-5-fluoro-2-methyl-1-(3,4,5-trimethoxybenzylidene)-3-(N-propargyl)-indenylacetamide]	700 nM	4	71%
370 nM	<25%		C=CCNC(=O)CC1=C(C)/C(=C/c2cc(OC)c(OC)c(OC)c2)c2ccc(F)cc21 [Example 28, (Z)-5-fluoro-2-methyl-1-(3,4,5-trimethoxybenzylidene)-3-(N-allyl)-indenylacetamide]	230 nM	2.3	35%
5200 nM		30* %	CCOC(=O)CN(Cc1ccccc1)C(=O)CC1=C(C)/C(=C/c2cc(OC)c(OC)c(OC)c2)c2ccc(F)cc21 [Example 31, (Z)-5-fluoro-2-methyl-1-(3,4,5 trimethoxybenzylidene)-3-(N-benzyl-N-glycinylethyl ester)-indenylacetamide]	> 10000 nM	<2	30%
500 nM	<25%		COc1cc(OC)c(/C=C2/C(C)=C(CC(=O)NCc3ccccc3)c3cc(F)ccc32)c(OC)c1 [Example 55, (Z)-5-fluoro-2-methyl-1-(2,4,6-trimethoxybenzylidene)-3-(N-benzyl)-indenylacetamide]			
